Structures are written as SMILES.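 Five concentrations, 48 hours, 96-well plates. TGI: concentration producing complete growth inhibition.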

One assay relates to MOLT-4 leukemia. The assay can be described thus: NCI tumour cell line growth inhibition, 48 h.
With `O=C(COc1ccc2c(=O)cc(-c3ccccc3)oc2c1)N1CCN(c2ccccc2)CC1`, the TGI is above 100 µM.
As for `O=C(c1cccc2ccccc12)C1(Br)S(=O)(=O)OCCOS1(=O)=O`, the TGI is above 100 µM.
Compound `Cn1cnc(CCc2ccccc2)n1` gave a TGI above 100 µM.
On the same count and under the same terms, to `CCOC(=O)c1c(N)sc2c1C(C(=O)OCC)CC2` (configuration not stated) belongs above 100 µM; to `O=C1C(Cl)=C(OCCCCl)C(=O)c2c(O)ccc(O)c21`, 1.86 µM; to `CC1=C(C(=O)O)N2C(=O)[C@@H](NC(=O)C(c3ccc(O)cc3)N3CSC(=S)N(C(C)C)C3)C2SC1` (some centres not stated), above 100 µM.
On the same count and under the same terms, then `COc1cc(OC)c2c(c1)C(=O)C(CC(C)O)=CC2=O` (configuration not stated), with 41.8 µM; and `Cc1csc(=S)n1OC(=O)NC1CCCCC1`, with above 29.4 µM; and `N#CCc1nc2ccccc2c(=O)[nH]1`, with above 100 µM.
The same measure, in the same setting: to `O=C(CSc1nnc(-c2ccc(N=Cc3ccc(Cl)cc3)cc2)o1)Nc1ccc(Cl)cc1Cl` belongs 66 µM.
Compound `COc1ccc(C2=Nc3ccccc3NC(=O)C2)cc1` returned a TGI above 100 µM.
On the same count and under the same terms, then `CCN(CC)CCCNc1nc(=O)[nH]c(C)c1C(=O)Nc1cccc2cc3ccccc3cc12`, with above 100 µM.
Same read-out and setting: to `O=S(=O)(O)c1ccc(O)c2ncc(Cl)cc12` belongs above 100 µM.
The same measure, in the same setting: to `COc1cc(/C=C/C(=O)c2ccc(NS(=O)(=O)c3cc([N+](=O)[O-])ccc3C)cc2)cc(OC)c1OC` belongs 6.58 µM.
In turn, `CCOC(=O)C(=[N+]=[N-])C(=O)C1(C(=O)OCC)CCN(C(=O)c2ccccc2)C1=O` (configuration not stated) yielded a TGI above 100 µM.
Still for that read-out and setting: then `NC(=O)N/N=C1\CCCCc2ccccc21`, with above 10 µM.

A further assay relates to MDA-MB-435. The assay can be described thus: NCI tumour cell line growth inhibition, 48 h.
`O=C(c1cccc2ccccc12)C1(Br)S(=O)(=O)OCCOS1(=O)=O` registered a TGI above 100 µM.
Still for that read-out and setting: to `N#CCc1nc2ccccc2c(=O)[nH]1` belongs above 100 µM; to `CCN(CC)CCCNc1nc(=O)[nH]c(C)c1C(=O)Nc1cccc2cc3ccccc3cc12`, above 100 µM.
On the same count and under the same terms, then `O=S(=O)(O)c1ccc(O)c2ncc(Cl)cc12`, with above 100 µM; and `COc1cc(/C=C/C(=O)c2ccc(NS(=O)(=O)c3cc([N+](=O)[O-])ccc3C)cc2)cc(OC)c1OC`, with 16.3 µM.
Compound `NC(=O)N/N=C1\CCCCc2ccccc21` showed a TGI above 10 µM.

Another assay concerns EKVX NSCLC. Kind of assay: NCI tumour cell line growth inhibition, 48 h.
In turn, `O=C(COc1ccc2c(=O)cc(-c3ccccc3)oc2c1)N1CCN(c2ccccc2)CC1` returned a TGI above 100 µM.
Still for that read-out and setting: then `O=C(c1cccc2ccccc12)C1(Br)S(=O)(=O)OCCOS1(=O)=O`, with above 100 µM; and `CCOC(=O)c1c(N)sc2c1C(C(=O)OCC)CC2` (configuration not stated), with above 100 µM; and `O=C1C(Cl)=C(OCCCCl)C(=O)c2c(O)ccc(O)c21`, with 40.9 µM.
Compound `CC1=C(C(=O)O)N2C(=O)[C@@H](NC(=O)C(c3ccc(O)cc3)N3CSC(=S)N(C(C)C)C3)C2SC1` (some centres not stated) had a TGI above 100 µM.
The compound `COc1cc(OC)c2c(c1)C(=O)C(CC(C)O)=CC2=O` (configuration not stated) came in with a TGI of 26.2 µM.
The same measure, in the same setting: to `Cc1csc(=S)n1OC(=O)NC1CCCCC1` belongs above 100 µM.
Still for that read-out and setting: to `N#CCc1nc2ccccc2c(=O)[nH]1` belongs above 100 µM; to `O=C(CSc1nnc(-c2ccc(N=Cc3ccc(Cl)cc3)cc2)o1)Nc1ccc(Cl)cc1Cl`, above 100 µM; to `COc1ccc(C2=Nc3ccccc3NC(=O)C2)cc1`, above 100 µM.
Still for that read-out and setting: then `CCN(CC)CCCNc1nc(=O)[nH]c(C)c1C(=O)Nc1cccc2cc3ccccc3cc12`, with above 100 µM; and `O=S(=O)(O)c1ccc(O)c2ncc(Cl)cc12`, with above 100 µM.
`COc1cc(/C=C/C(=O)c2ccc(NS(=O)(=O)c3cc([N+](=O)[O-])ccc3C)cc2)cc(OC)c1OC` registered a TGI of 17 µM.
`CCOC(=O)C(=[N+]=[N-])C(=O)C1(C(=O)OCC)CCN(C(=O)c2ccccc2)C1=O` (configuration not stated) gave a TGI above 100 µM.
On the same count and under the same terms, then `NC(=O)N/N=C1\CCCCc2ccccc21`, with above 10 µM; and `CCOC(=O)c1ccc(N=C2C(=S)N(c3ccc(C(=O)OCC)cc3)C(=N)N2/N=C/c2ccccc2)cc1`, with above 100 µM.

A further assay relates to OVCAR-8 ovarian. The assay can be described thus: NCI tumour cell line growth inhibition, 48 h.
The compound `O=C(COc1ccc2c(=O)cc(-c3ccccc3)oc2c1)N1CCN(c2ccccc2)CC1` registered a TGI above 100 µM.
The same measure, in the same setting: to `O=C(c1cccc2ccccc12)C1(Br)S(=O)(=O)OCCOS1(=O)=O` belongs above 100 µM; to `Cn1cnc(CCc2ccccc2)n1`, above 100 µM; to `CCOC(=O)c1c(N)sc2c1C(C(=O)OCC)CC2` (configuration not stated), above 100 µM.
Same read-out and setting: to `O=C1C(Cl)=C(OCCCCl)C(=O)c2c(O)ccc(O)c21` belongs 20.9 µM.
On the same count and under the same terms, then `CC1=C(C(=O)O)N2C(=O)[C@@H](NC(=O)C(c3ccc(O)cc3)N3CSC(=S)N(C(C)C)C3)C2SC1` (some centres not stated), with above 100 µM; and `COc1cc(OC)c2c(c1)C(=O)C(CC(C)O)=CC2=O` (configuration not stated), with 29.5 µM; and `Cc1csc(=S)n1OC(=O)NC1CCCCC1`, with above 100 µM.
`N#CCc1nc2ccccc2c(=O)[nH]1`: the TGI was above 100 µM.
On the same count and under the same terms, then `O=C(CSc1nnc(-c2ccc(N=Cc3ccc(Cl)cc3)cc2)o1)Nc1ccc(Cl)cc1Cl`, with 83.7 µM; and `COc1ccc(C2=Nc3ccccc3NC(=O)C2)cc1`, with above 100 µM.
The same measure, in the same setting: then `CCN(CC)CCCNc1nc(=O)[nH]c(C)c1C(=O)Nc1cccc2cc3ccccc3cc12`, with above 100 µM; and `O=S(=O)(O)c1ccc(O)c2ncc(Cl)cc12`, with above 100 µM; and `COc1cc(/C=C/C(=O)c2ccc(NS(=O)(=O)c3cc([N+](=O)[O-])ccc3C)cc2)cc(OC)c1OC`, with 7.97 µM.
`CCOC(=O)C(=[N+]=[N-])C(=O)C1(C(=O)OCC)CCN(C(=O)c2ccccc2)C1=O` (configuration not stated): the TGI was above 100 µM.
On the same count and under the same terms, then `NC(=O)N/N=C1\CCCCc2ccccc21`, with above 10 µM.
On the same count and under the same terms, then `CCOC(=O)c1ccc(N=C2C(=S)N(c3ccc(C(=O)OCC)cc3)C(=N)N2/N=C/c2ccccc2)cc1`, with above 100 µM.

The next assay relates to NCI/ADR-RES ovarian. The assay can be described thus: NCI tumour cell line growth inhibition, 48 h.
`O=C(c1cccc2ccccc12)C1(Br)S(=O)(=O)OCCOS1(=O)=O` gave a TGI above 100 µM.
On to `O=C1C(Cl)=C(OCCCCl)C(=O)c2c(O)ccc(O)c21`, for which the TGI was determined as 24.3 µM.
On the same count and under the same terms, to `N#CCc1nc2ccccc2c(=O)[nH]1` belongs above 100 µM; to `CCN(CC)CCCNc1nc(=O)[nH]c(C)c1C(=O)Nc1cccc2cc3ccccc3cc12`, above 100 µM.
On the same count and under the same terms, to `O=S(=O)(O)c1ccc(O)c2ncc(Cl)cc12` belongs above 100 µM; to `COc1cc(/C=C/C(=O)c2ccc(NS(=O)(=O)c3cc([N+](=O)[O-])ccc3C)cc2)cc(OC)c1OC`, above 100 µM.
The same measure, in the same setting: then `CCOC(=O)C(=[N+]=[N-])C(=O)C1(C(=O)OCC)CCN(C(=O)c2ccccc2)C1=O` (configuration not stated), with above 100 µM; and `NC(=O)N/N=C1\CCCCc2ccccc21`, with above 10 µM; and `CCOC(=O)c1ccc(N=C2C(=S)N(c3ccc(C(=O)OCC)cc3)C(=N)N2/N=C/c2ccccc2)cc1`, with above 100 µM.

Another assay relates to SF-539 CNS. The assay can be described thus: NCI tumour cell line growth inhibition, 48 h.
`O=C(COc1ccc2c(=O)cc(-c3ccccc3)oc2c1)N1CCN(c2ccccc2)CC1` displayed a TGI above 100 µM.
In the case of `Cn1cnc(CCc2ccccc2)n1`, the TGI is above 100 µM.
Same read-out and setting: to `O=C1C(Cl)=C(OCCCCl)C(=O)c2c(O)ccc(O)c21` belongs 8.97 µM.

Values taken from PubChem BioAssay (NCI).
